Data: patent US20100267637A1, “TREATMENT OF MELANOMA WITH ALPHA THYMOSIN PEPTIDES IN COMBINATION WITH A KINASE INHIBITOR” (SciClone Pharmaceuticals, Inc., priority 2007, published 2010)

Experiment: Treatment toxicity: body weight and drug-induced animal deaths in B16 melanoma-bearing mice
Assay type: in vivo, C57BL/6 mice
Protocol: The toxic effects of the dosing regimens were also monitored. […] Meanwhile 9H10 was given in two groups via i.p. on Day 3, 6 and 9. […] Tumor volume and body weight were measured every three days, and tumor weights were measured on Day 16 at the end of the study.
On Day 3, the animals were randomly assigned into nine different weight-matched and tumor-size-matched groups. Dosing was started on Day 3 using the regimen according to Table 2.
From Day 1 to Day 15, mortality and moribundity were checked twice daily, the body weights were recorded once every 3 days, and tumors were measured using a caliper once every 3 days. At the end of the study (Day 16), the animals were euthanized by CO2 asphyxiation, and the tumors were excised and weighed.
Toxicity of all treatment regimens was evaluated with the body weights of the study animals along with the drug-induced animal deaths. The inhibition of body weight was calculated using Excel according to the equation below:
PIBW(%)=100×(BW vehicle−BW drug treated)/BW vehicle
Inter-group comparison was performed in terms of tumor volume, tumor weight and body weight, using a student's t test. P values of less than 0.05 were considered to be statistically significant.

## CN(C)/N=N/c1[nH]cnc1C(N)=O [DTIC, Dacarbazine]
Day 0 (tumor implantation, before dosing)
  Body Weight (g) (Mean ± SD): 20.86 ± 1.294 g
Day 0, animal F1
  Body weights on Day 0: 21.50 g
Day 0, animal F2
  Body weights on Day 0: 19.90 g
Day 0, animal F3
  Body weights on Day 0: 19.70 g
Day 0, animal F4
  Body weights on Day 0: 19.30 g
Day 0, animal F5
  Body weights on Day 0: 22.10 g
Day 0, animal M1
  Body weights on Day 0: 22.40 g
Day 0, animal M2
  Body weights on Day 0: 21.80 g
Day 0, animal M3
  Body weights on Day 0: 21.00 g
Day 0, animal M4
  Body weights on Day 0: 18.90 g
Day 0, animal M5
  Body weights on Day 0: 22.00 g
Day 0
  Percent inhibition of body weight vs vehicle (PIBW): −0.1440%
Day 3 (start of dosing)
  Body Weight (g) (Mean ± SD): 21.02 ± 0.993 g
Day 3, animal F1
  Body weights on Day 3: 21.60 g
Day 3, animal F2
  Body weights on Day 3: 19.60 g
Day 3, animal F3
  Body weights on Day 3: 20.50 g
Day 3, animal F4
  Body weights on Day 3: 20.30 g
Day 3, animal F5
  Body weights on Day 3: 21.30 g
Day 3, animal M1
  Body weights on Day 3: 22.20 g
Day 3, animal M2
  Body weights on Day 3: 22.00 g
Day 3, animal M3
  Body weights on Day 3: 21.20 g
Day 3, animal M4
  Body weights on Day 3: 19.50 g
Day 3, animal M5
  Body weights on Day 3: 22.00 g
Day 3
  Percent inhibition of body weight vs vehicle (PIBW): −0.6705%
Day 6
  Body Weight (g) (Mean ± SD): 20.41 ± 0.960 g
  Percent inhibition of body weight vs vehicle (PIBW): −0.0490%
Day 6, animal F1
  Body weights on Day 6: 20.40 g
Day 6, animal F2
  Body weights on Day 6: 18.40 g
Day 6, animal F3
  Body weights on Day 6: 19.70 g
Day 6, animal F4
  Body weights on Day 6: 20.10 g
Day 6, animal F5
  Body weights on Day 6: 20.50 g
Day 6, animal M1
  Body weights on Day 6: 20.90 g
Day 6, animal M2
  Body weights on Day 6: 21.80 g
Day 6, animal M3
  Body weights on Day 6: 20.20 g
Day 6, animal M4
  Body weights on Day 6: 20.50 g
Day 6, animal M5
  Body weights on Day 6: 21.60 g
Day 9
  Body Weight (g) (Mean ± SD): 20.99 ± 1.049 g
  Percent inhibition of body weight vs vehicle (PIBW): −2.8417%
Day 9, animal F1
  Body weights on Day 9: 21.70 g
Day 9, animal F2
  Body weights on Day 9: 19.50 g
Day 9, animal F3
  Body weights on Day 9: 21.10 g
Day 9, animal F4
  Body weights on Day 9: 19.50 g
Day 9, animal F5
  Body weights on Day 9: 21.70 g
Day 9, animal M1
  Body weights on Day 9: 21.30 g
Day 9, animal M2
  Body weights on Day 9: 22.10 g
Day 9, animal M3
  Body weights on Day 9: 20.60 g
Day 9, animal M4
  Body weights on Day 9: 20.00 g
Day 9, animal M5
  Body weights on Day 9: 22.40 g
Day 12
  Body Weight (g) (Mean ± SD): 22.09 ± 1.079 g
  Percent inhibition of body weight vs vehicle (PIBW): −0.9137%
Day 12, animal F1
  Body weights on Day 12: 22.50 g
Day 12, animal F2
  Body weights on Day 12: 20.10 g
Day 12, animal F3
  Body weights on Day 12: 21.40 g
Day 12, animal F4
  Body weights on Day 12: 21.70 g
Day 12, animal F5
  Body weights on Day 12: 22.20 g
Day 12, animal M1
  Body weights on Day 12: 22.80 g
Day 12, animal M2
  Body weights on Day 12: 23.40 g
Day 12, animal M3
  Body weights on Day 12: 22.20 g
Day 12, animal M4
  Body weights on Day 12: 21.00 g
Day 12, animal M5
  Body weights on Day 12: 23.60 g
Day 15
  Body Weight (g) (Mean ± SD): 22.22 ± 1.963 g
  Percent inhibition of body weight vs vehicle (PIBW): −0.3613%
Day 15, animal F1
  Body weights on Day 15: 21.30 g
Day 15, animal F2
  Body weights on Day 15: 18.70 g
Day 15, animal F3
  Body weights on Day 15: 20.20 g
Day 15, animal F4
  Body weights on Day 15: 22.20 g
Day 15, animal F5
  Body weights on Day 15: 22.20 g
Day 15, animal M1
  Body weights on Day 15: 24.50 g
Day 15, animal M2
  Body weights on Day 15: 24.20 g
Day 15, animal M3
  Body weights on Day 15: 22.70 g
Day 15, animal M4
  Body weights on Day 15: 21.30 g
Day 15, animal M5
  Body weights on Day 15: 24.90 g
Throughout the course of the study
  body weight effect in words (loss / difference vs vehicle group): no statistical differences in body weights
